From patent US8703785B2, “2-aminopyrimidin-4-one and 2-aminopyridine derivatives both having BACE1-inhibiting activity” (Shionogi & Co., Ltd., priority 2008, dated 2014)

Assays:
Recombinant human BACE-1 = Recombinant human BACE-1 (Homo sapiens (Human), UniProt P56817); test: Measurement of BACE1 inhibitory activity; type: biochemical; conditions: Recombinant human BACE-1 7.4 nM, substrate peptide 18 nM, pH 5.0, 3 hours at 30° C.; read-out: IC50 (BACE1 enzyme activity)
Protocol: First, 48.5 μl portions of a solution of substrate peptide (Biotin-XSEVNLDAEFRHDSGC-Eu: X=ε-amino-n-capronic acid, Eu=Europium cryptate) were put into respective wells of a 96-well half area microplate (black microplate, Costar). Then, 0.5 μl of a test compound (DMSO (dimethyl sulfoxide) solution) and 1 μl of Recombinant human BACE-1 (R&D systems) were added to each of the wells, and they were reacted for 3 hours at 30° C. […] The final concentration of the substrate peptide was set to 18 nM, and the final concentration of Recombinant human BACE-1 was set to 7.4 nM. The reaction buffer used was a sodium acetate buffer (50 mM sodium acetate, pH 5.0, 0.008% Triton X-100). After the reaction finished, 50 μl portions of a 8.0 μg/ml solution of Streptavidin-XL665 (CIS bio international) in a phosphate buffer (150 mM K2HPO4—KH2PO4, pH 7.0, 0.008% Triton X-100, 0.8 M KF) were added to the respective wells, and the plate was left standing for 1 hour at 30° C. Thereafter, the fluorescence intensity (excitation wavelength: 320 nm, measurement wavelength: 620 nm and 665 nm) was measured with a Wallac 1420 multilabel counter (Perkin Elmer life sciences). The enzyme activity was determined from the count rate at each measurement wavelength (10000× Count 665/Count 620), and the amount needed to inhibit the enzyme activity by 50% (IC50) was calculated.

[1] = test system: Neuroblastoma SH-SY5Y cells (SH/APPwt) with human wild-type β-APP excessively expressed; test: Measurement of β-amyloid (Aβ) production inhibitory effect in cell; type: cell-based; conditions: 24 hours incubation, Amyloid-β 1-40 HTRF
Protocol: Neuroblastoma SH-SY5Y cells (SH/APPwt) with human wild-type β-APP excessively expressed therein were prepared at 8×10^5 cells/mL, and 150 μl portions thereof were inoculated into respective wells of a 96-well culture plate (Falcon). The cells were cultured for 2 hours at 37° C. in a 5% gaseous carbon dioxide incubator. […] Namely, the final DMSO concentration was 1%, and the amount of the cell culture was 200 μl. After the incubation was performed for 24 hours from the addition of the test compound, 100 μl of the culture supernatant was collected from each fraction. The amount of the Aβ in each fraction was measured. The Aβ amount was measured as follows. 10 μl of a homogeneous time resolved fluorescence (HTRF) measurement reagent (Amyloid-β 1-40 peptide; IBA Molecular Holding, S.A.) and 10 μl of the culture supernatant were put into a 384-well half area microplate (black microplate, Costar) and mixed with each other, and then left standing overnight at 4° C. while the light was shielded. Then, the fluorescence intensity (excitation wavelength: 337 nm, measurement wavelength: 620 nm and 665 nm) was measured with a Wallac 1420 multilabel counter (Perkin Elmer life sciences).

CYP3A4 = CYP3A4 (Homo sapiens (Human), UniProt P08684); test: CYP3A4 fluorescent MBI test; type: in vitro ADME; conditions: E. coli-expressing CYP3A4, 7-BFC substrate, pre-reaction 0 or 30 minutes
Protocol: The CYP3A4 fluorescent MBI test is a test to examine enhancement of CYP3A4 inhibition by metabolic reaction of the compound. Here, E. coli-expressing CYP3A4 was used as an enzyme, and a reaction wherein 7-benzyloxy trifluoromethylcumarin (7-BFC) was debenzylated by the CYP3A4 enzyme into a fluorescent metabolite 7-hydroxytrifluoromethylcumarin (HFC) was employed as an indicator reaction. The reaction conditions were as follows.
Substrate: 5.6 μmol/L 7-BFC
Pre-reaction time: 0 or 30 minutes
Reaction time: 15 minutes
Reaction temperature: 25° C. (room temperature)
CYP3A4 content (E. coli-expressing enzyme): 62.5 pmol/mL at pre-reaction, […] at reaction (10-fold diluted) […]
The enzyme and a test compound solution were added to a K-Pi buffer (pH 7.4) in the aforementioned amounts for the pre-reaction so that a pre-reaction solution was prepared, and this solution was put into a 96-well microplate. […] With respect to each of the microplates on which the indicator reaction was performed, the fluorescence value of the metabolite 7-HFC was measured with a fluorescence plate reader (Ex=420 nm, Em=535 nm). […] The remaining activity (%) at each concentration after adding the test compound solution was calculated, and the IC50 value was calculated from the concentration and inhibition percentage by inverse estimation with the logistic model. […]

hERG (IKr) = hERG (IKr) (Homo sapiens (Human), UniProt Q12809); test: hERG test; type: cell-based; conditions: HEK293 cells expressing hERG channel, pH 7.4, HEK293 cell expressing hERG, compound concentration 5 μM, read-out: inhibitory percentage (IKr maximum tail current)
Source text: For the purpose of risk assessment for QT prolongation on an electrocardiogram, the action on delayed rectifier K+ current (IKr) which plays an important role on a process of ventricular repolarization was studied using a HEK293 cell with a human ether-a-go-go related gene (hERG) channel expressed therein. A cell was maintained at a membrane potential of −80 mV, and then +40 mV of a depolarizing stimulus was applied to the cell for 2 seconds and further −50 mV of a repolarizing stimulus was applied thereto for 2 seconds by a whole-cell patch clamp technique with a fully-automatic patch clamp system (PatchXpress 7000A, Axon Instruments Inc.), and the induced IKr was recorded. […] The absolute value of the maximum tail current was determined from the obtained IKr with an analysis software (DataXpress ver. 1, Molecular Devices Corporation) based on a current value at a maintained membrane potential. Further, an inhibitory percentage relative to the maximum tail current before application of the test compound was calculated, and influence of the test compound on IKr was evaluated in comparison with the medium application group (0.1% dimethyl sulfoxide solution). […]

Sequence of hERG (IKr) (Q12809 whole entry): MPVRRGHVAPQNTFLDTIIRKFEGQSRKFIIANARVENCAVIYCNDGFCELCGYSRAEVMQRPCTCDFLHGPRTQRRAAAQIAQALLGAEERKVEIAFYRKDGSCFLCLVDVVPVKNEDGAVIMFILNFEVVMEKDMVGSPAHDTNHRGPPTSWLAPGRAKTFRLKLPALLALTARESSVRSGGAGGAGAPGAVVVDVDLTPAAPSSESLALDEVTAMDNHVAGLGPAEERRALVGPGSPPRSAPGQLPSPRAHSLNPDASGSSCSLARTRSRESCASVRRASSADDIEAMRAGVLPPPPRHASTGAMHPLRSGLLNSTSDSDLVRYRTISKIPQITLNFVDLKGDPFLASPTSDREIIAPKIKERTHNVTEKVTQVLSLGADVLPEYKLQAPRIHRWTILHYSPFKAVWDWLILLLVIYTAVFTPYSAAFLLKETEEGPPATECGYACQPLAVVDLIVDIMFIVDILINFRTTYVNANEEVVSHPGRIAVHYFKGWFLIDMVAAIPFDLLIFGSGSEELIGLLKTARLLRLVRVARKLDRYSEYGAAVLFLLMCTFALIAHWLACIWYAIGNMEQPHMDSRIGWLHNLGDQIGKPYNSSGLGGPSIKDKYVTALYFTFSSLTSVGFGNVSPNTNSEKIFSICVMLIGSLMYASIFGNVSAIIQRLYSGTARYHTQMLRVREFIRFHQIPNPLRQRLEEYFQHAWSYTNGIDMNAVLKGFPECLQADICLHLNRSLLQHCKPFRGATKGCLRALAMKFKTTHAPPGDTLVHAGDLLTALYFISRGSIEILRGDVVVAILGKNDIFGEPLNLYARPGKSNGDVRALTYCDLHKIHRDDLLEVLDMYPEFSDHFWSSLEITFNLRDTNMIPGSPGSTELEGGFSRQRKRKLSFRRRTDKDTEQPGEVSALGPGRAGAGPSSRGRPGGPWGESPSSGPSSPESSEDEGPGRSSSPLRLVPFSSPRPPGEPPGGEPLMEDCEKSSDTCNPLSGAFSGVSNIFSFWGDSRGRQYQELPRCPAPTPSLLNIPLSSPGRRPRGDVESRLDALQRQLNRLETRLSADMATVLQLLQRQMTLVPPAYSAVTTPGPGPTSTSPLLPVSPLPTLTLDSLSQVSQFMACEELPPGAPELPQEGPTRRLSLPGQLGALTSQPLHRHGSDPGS
Sequence of Recombinant human BACE-1 (P56817 46-501): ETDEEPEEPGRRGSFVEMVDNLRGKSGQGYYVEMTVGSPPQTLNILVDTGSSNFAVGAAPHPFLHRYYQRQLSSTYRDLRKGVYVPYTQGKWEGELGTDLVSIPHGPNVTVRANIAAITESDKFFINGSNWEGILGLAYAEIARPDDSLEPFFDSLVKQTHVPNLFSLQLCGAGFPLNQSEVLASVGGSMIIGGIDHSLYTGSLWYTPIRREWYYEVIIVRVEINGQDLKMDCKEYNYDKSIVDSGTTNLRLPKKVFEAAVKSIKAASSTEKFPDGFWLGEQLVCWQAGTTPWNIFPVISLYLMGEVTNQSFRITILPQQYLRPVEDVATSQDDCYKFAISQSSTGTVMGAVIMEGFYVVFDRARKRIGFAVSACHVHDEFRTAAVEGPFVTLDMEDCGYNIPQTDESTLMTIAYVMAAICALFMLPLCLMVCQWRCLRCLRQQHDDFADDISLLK
Sequence of CYP3A4 (P08684 whole entry): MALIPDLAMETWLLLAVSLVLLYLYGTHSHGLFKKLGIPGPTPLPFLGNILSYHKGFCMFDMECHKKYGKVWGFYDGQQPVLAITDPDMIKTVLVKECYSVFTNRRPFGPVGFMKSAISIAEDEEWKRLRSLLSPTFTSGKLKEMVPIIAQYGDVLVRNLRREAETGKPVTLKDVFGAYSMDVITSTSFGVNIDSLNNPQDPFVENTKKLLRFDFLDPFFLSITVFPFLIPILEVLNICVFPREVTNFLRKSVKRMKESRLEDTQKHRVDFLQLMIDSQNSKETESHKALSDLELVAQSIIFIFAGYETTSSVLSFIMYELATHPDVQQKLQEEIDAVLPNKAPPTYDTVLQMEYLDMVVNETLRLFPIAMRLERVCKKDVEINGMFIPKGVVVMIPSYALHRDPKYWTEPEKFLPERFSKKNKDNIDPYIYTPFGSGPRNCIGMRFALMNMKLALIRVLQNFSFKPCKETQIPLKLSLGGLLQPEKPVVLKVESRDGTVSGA

Work on `COCCOc1cnc(C(=O)Nc2cccc(C3(C)CC(=O)N(C)C(N)=N3)c2)cn1` (stereo not shown) [Compound 40] yielded an IC50 (Recombinant human BACE-1) of 14 nM, an IC50 [1] of 0.9 nM and an IC50 difference without vs with pre-reaction (CYP3A4) of no more than 3000 nM. The inhibition at 10 min, 5 µM (hERG (IKr)) was 4.1%.
